In patent publication US20080124274A1, “Compositions and methods for detecting and treating tumors containing acidic areas” (priority 2006, published 2008):
Several values for one entry are separate records, joined by “and”; a condition that tells them apart may be missing. Identical values can stand only once.

Tests used:
[1] = Titration of the sodium salt with HCl in aqueous solution
Protocol: Typically new structures that may be suitable as advanced pH-switch components are first assessed for their pKa value in normal saline. This entails preparing the sodium salt form of the structure and dissolving it at a concentration of 20 milliMolar in 15 ml of 0.15 Molar NaCl (deareated to remove CO2). […] A plot of pH versus volume of added HCl affords the effective pKa value. It is also desirable to carry out this same titration in methanol/water (1:1 by vol) in order to get an estimate of the pKa value independent of insolubility effects.

tumors = details: tumor-bearing mice; reduction of about 0.3 pH units in the tumors; cited from earlier work
acidic areas of tumors = details: without corresponding reduction of pH in normal tissues; cited from earlier work
[2] = urine rendered basic; cited from earlier work

CN(C)C(=O)C=CC(=O)O [FIG. 14b]
mid-point of the transition between salt and acid (pKa value) ([1]; sodium salt titrated with HCl in aqueous solution): below 3.0

O=C(O)CCCc1ccc(N(CCCl)CCCl)cc1 [Chlorambucil]
improvement in tumor growth delay (tumors): 1.7 fold

CCC[N+]1([O-])CCC(C(=O)O)CC1 (stereo not drawn) [structure iii in FIG. 16b, N-oxide of N-propylisonipocotic acid]
minimum of the first derivative of the titration curve (pH) ([1]; sodium salt titrated in aqueous solution): ~4.0 and ~5.6

glucose and meta-iodobenzylguanidine
reduction of the pH in acidic areas of tumors (acidic areas of tumors): ≤ 0.7 pH unit

CC(=O)Nc1nnc(S(N)(=O)=O)s1 [Acetazolamide]
pH of the urine [2]: ≥ 7.4

N=C(N)NCc1cccc([131I])c1 [meta-iodobenzylguanidine, reference compound]
reduction of the pH in acidic areas of tumors (acidic areas of tumors): further reduced
